In patent publication US20040063662A1, “Selenophene anti-tumor agents” (priority 1996, published 2004):

What was measured:
HL-60(TB) = test: NCI human tumor cell panel: HL-60(TB) (Leukemia); type: cell-based
SR = test: NCI human tumor cell panel: SR (Leukemia); type: cell-based
EKVX = test: NCI human tumor cell panel: EKVX (Non-Small Cell Lung Cancer); type: cell-based
HOP-62 = test: NCI human tumor cell panel: HOP-62 (Non-Small Cell Lung Cancer); type: cell-based
NCI-H23 = test: NCI human tumor cell panel: NCI-H23 (Non-Small Cell Lung Cancer); type: cell-based; details: NCI-H23, read-out: Log10 GI50 (converted)
COLO 205 = test: NCI human tumor cell panel: COLO 205 (Colon Cancer); type: cell-based
HCT-15 = test: NCI human tumor cell panel: HCT-15 (Colon Cancer); type: cell-based
HT29 = test: NCI human tumor cell panel: HT29 (Colon Cancer); type: cell-based
KM12 = test: NCI human tumor cell panel: KM12 (Colon Cancer); type: cell-based
SW-620 = test: NCI human tumor cell panel: SW-620 (Colon Cancer); type: cell-based
SF-268 = test: NCI human tumor cell panel: SF-268 (CNS Cancer); type: cell-based
SF-539 = test: NCI human tumor cell panel: SF-539 (CNS Cancer); type: cell-based
MALME-3M = test: NCI human tumor cell panel: MALME-3M (Melanoma); type: cell-based; details: Malme-3M
SK-MEL-2 = test: NCI human tumor cell panel: SK-MEL-2 (Melanoma); type: cell-based
SK-MEL-28 = test: NCI human tumor cell panel: SK-MEL-28 (Melanoma); type: cell-based
UACC-62 = test: NCI human tumor cell panel: UACC-62 (Melanoma); type: cell-based
OVCAR-4 = test: NCI human tumor cell panel: OVCAR-4 (Ovarian Cancer); type: cell-based
OVCAR-5 = test: NCI human tumor cell panel: OVCAR-5 (Ovarian Cancer); type: cell-based
A498 = test: NCI human tumor cell panel: A498 (Renal Cancer); type: cell-based
CAKI-1 = test: NCI human tumor cell panel: CAKI-1 (Renal Cancer); type: cell-based
RXF-393 = test: NCI human tumor cell panel: RXF-393 (Renal Cancer); type: cell-based
MDA-MB-231/ATCC = test: NCI human tumor cell panel: MDA-MB-231/ATCC (Breast Cancer); type: cell-based; details: Homo sapiens, MDA-MB-231, MDA-MB-231/ATCC
T-47D = test: NCI human tumor cell panel: T-47D (Breast Cancer); type: cell-based; details: T47D
NCI-H522 = test: NCI human tumor cell panel: NCI-H522 (Non-Small Cell Lung Cancer)
[1] = tested on: panel of sixty different human tumor cell lines; test: NCI human tumor cell panel: whole panel (mean graph summary)
[2] = read-out: Log10 GI50 (converted)
[3] = read-out: Log10 TGI (converted)

OCc1ccc(-c2ccc(-c3ccc[se]3)[se]2)[se]1 [compound 675246]
GI50 (HL-60(TB); [2]): 5.75 µM
IC (TGI) (HL-60(TB); read-out: Log10 TGI): > 100 µM
GI50 (SR; [2]): 6.61 µM
IC (TGI) (SR; [3]): > 100 µM
GI50 (EKVX; [2]): 5.5 µM
IC (TGI) (EKVX; [3]): 17.4 µM
GI50 (HOP-62; HOP-62, read-out: Log10 GI50 (converted)): 7.24 µM
IC (TGI) (HOP-62; HOP-62, read-out: Log10 TGI (converted)): 20.4 µM
GI50 (NCI-H23): 13.2 µM
GI50 (COLO 205; COLO 205, read-out: Log10 GI50 (converted)): 1 µM
IC (TGI) (COLO 205; COLO 205, read-out: Log10 TGI (converted)): 4.07 µM
GI50 (HCT-15; HCT-15, read-out: Log10 GI50 (converted)): 4.27 µM
IC (TGI) (HCT-15; HCT-15, read-out: Log10 TGI (converted)): 17.8 µM
GI50 (HT29; HT-29, HT29, read-out: Log10 GI50 (converted)): 0.851 µM
IC (TGI) (HT29; HT-29, HT29, read-out: Log10 TGI (converted)): 10.7 µM
GI50 (KM12; KM12, read-out: Log10 GI50 (converted)): 4.17 µM
IC (TGI) (KM12; KM12, read-out: Log10 TGI (converted)): 17 µM
GI50 (SW-620; SW-620, read-out: Log10 GI50 (converted)): 0.417 µM
IC (TGI) (SW-620; SW-620, read-out: Log10 TGI (converted)): 10.2 µM
GI50 (SF-268; SF-268, read-out: Log10 GI50 (converted)): 4.07 µM
IC (TGI) (SF-268; SF-268, read-out: Log10 TGI (converted)): > 100 µM
GI50 (SF-539; SF-539, read-out: Log10 GI50 (converted)): 12.3 µM
IC (TGI) (SF-539; SF-539, read-out: Log10 TGI (converted)): 25.1 µM
GI50 (MALME-3M; [2]): 6.17 µM
IC (TGI) (MALME-3M; [3]): 19.5 µM
GI50 (SK-MEL-2; SK-MEL-2, read-out: Log10 GI50 (converted)): 9.12 µM
IC (TGI) (SK-MEL-2; SK-MEL-2, read-out: Log10 TGI (converted)): 25.7 µM
GI50 (SK-MEL-28; SK-MEL-28, read-out: Log10 GI50 (converted)): 7.41 µM
IC (TGI) (SK-MEL-28; SK-MEL-28, read-out: Log10 TGI (converted)): 21.9 µM
GI50 (UACC-62; UACC-62, read-out: Log10 GI50 (converted)): 0.0102 µM
IC (TGI) (UACC-62; UACC-62, read-out: Log10 TGI (converted)): 11.2 µM
GI50 (OVCAR-4; OVCAR-4, read-out: Log10 GI50 (converted)): 0.575 µM
IC (TGI) (OVCAR-4; OVCAR-4, read-out: Log10 TGI (converted)): 12.3 µM
GI50 (OVCAR-5; OVCAR-5, read-out: Log10 GI50 (converted)): 0.182 µM
IC (TGI) (OVCAR-5; OVCAR-5, read-out: Log10 TGI (converted)): 25.1 µM
GI50 (A498; A498, read-out: Log10 GI50 (converted)): 0.0389 µM
IC (TGI) (A498; A498, read-out: Log10 TGI (converted)): 0.166 µM
GI50 (CAKI-1; CAKI-1, read-out: Log10 GI50 (converted)): 5.37 µM
IC (TGI) (CAKI-1; CAKI-1, read-out: Log10 TGI (converted)): 18.6 µM
GI50 (RXF-393; RXF-393, read-out: Log10 GI50 (converted)): 0.0209 µM
IC (TGI) (RXF-393; RXF-393, read-out: Log10 TGI (converted)): 0.0912 µM
GI50 (MDA-MB-231/ATCC; [2]): 4.37 µM
IC (TGI) (MDA-MB-231/ATCC; [3]): 33.9 µM
GI50 (T-47D; [2]): 3.8 µM
IC (TGI) (T-47D; [3]): 15.1 µM
GI50 (NCI-H522; NCI-H522, read-out: Log10 GI50 (converted)): 2.45 µM
IC (TGI) (NCI-H522; NCI-H522, read-out: Log10 TGI): 6.61 µM
GI50 ([1]; Homo sapiens, read-out: Log10 GI50, MG_MID, mean over the panel (converted)): 1.66 µM
CC50 ([1]; Homo sapiens, read-out: Log10 LC50, MG_MID, mean over the panel (converted)): 51.3 µM
Log10 TGI, MG_MID ([1]; mean over the panel): −4.91
Log10 TGI, Delta ([1]; whole panel): 2.14
Log10 TGI, Range ([1]; whole panel): 3.04
